Series [1] relates to Mus musculus. Nature of the series: Antinociceptive activity in ip dosed C57BL/6J mouse assessed as tail withdrawal latency from warm water. The format is functional.
The target of series [2] is T1, Mu-type opioid receptor (Homo sapiens, UniProt P35372). The series is described as follows: Agonist activity at human MOP expressed in CHO-K1 cell membrane assessed as [35S]GTPgammaS binding. The format is functional, cell membranes. In general terms: GTPγS is a poorly hydrolysed GTP analogue; its binding reports G protein activation.
For series [3], the system named is Rattus norvegicus. Nature of the series: Antinociceptive activity in Sprague-Dawley rat assessed as tail flick response in warm water administered po. The format is functional.
For series [4], the target named is T2, Delta-type opioid receptor (Homo sapiens, UniProt P41143). Nature of the series: Displacement of [3H]DPDPE from human DOP expressed in CHO-K1 cell membrane incubated for 60 mins by Microscint-counting analysis. It is filed as cell membranes.
The target of series [5] is T1, Mu-type opioid receptor. The series is described as follows: Displacement of [3H]DAMGO from human MOP expressed in CHO-K1 cell membrane incubated for 60 mins by Microscint-counting analysis. The format is cell membranes. A general note: Displacement assays read how much labelled ligand stays bound in the presence of the test substance.
The test system of series [6] is Rattus norvegicus. Nature of the series: Antinociceptive activity in rat administered iv. It is filed as functional.
The test system of series [7] is Mus musculus. Nature of the series: Antinociceptive activity in mouse administered po. The format is functional.
Series [8] concerns the target Mu-type opioid receptor (Bos taurus, UniProt P79350). Nature of the series: Displacement of [3H]DAMGO from calf thalamus membrane MOP by competitive binding assay. It is filed as cell membranes.
Series [9] is filed under the species Rattus norvegicus. The series is described as follows: Antinociceptive activity in rat. It is filed as functional.
A short description of series [10]: Displacement of [3H]DPDPE from calf frontal cortex membrane Delta-type opioid receptor by competitive binding assay. It is filed as cell membranes, Bos taurus.
In series [11] the target is T3, Kappa-type opioid receptor (Cavia porcellus, UniProt P41144). Nature of the series: Displacement of [3H]U69593 from guinea pig cerebellum KOP by competitive binding assay. It is filed as tissue-based.
For series [12], the system named is Rattus norvegicus. The series is described as follows: Antinociceptive activity in rat administered sc. It is filed as functional.
Series [13] has as its target Mu-type opioid receptor (Cavia porcellus, UniProt P97266). Nature of the series: (§1) Antagonist activity at guinea pig ileum MOP. The format is functional, tissue-based.
Series [14] has as its target Mu-type opioid receptor (Cavia porcellus) (UniProt P97266). Described as §1. The format is functional, tissue-based. To be noted: filed as antagonist.
The subject of series [15] is Rattus norvegicus. Nature of the series: Antinociceptive activity in rat administered IT. The format is functional.
Series [16] is described as follows: Toxicity in rat assessed as inhibition of gastrointestinal transit at 100 to 300 pmol icv or IT by charcoal meal test. To be noted: in vivo, icv_or_intrathecal, dose 100-300 pmol.
For series [17], the system named is Mus musculus. The series is described as follows: Antinociceptive activity in mouse administered IT. It is filed as functional.
In series [18] the test system is Mus musculus. The series is described as follows: Antinociceptive activity in mouse administered icv. It is filed as functional.
Series [19] has as its system Mus musculus. Nature of the series: Antinociceptive activity in mouse administered IV. The format is functional.
Series [20] relates to Mus musculus. The series is described as follows: Antinociceptive activity in mouse administered iv by hot plate test. The format is functional. Background: Thermal pain tests record how soon the animal reacts.
Series [21] deals with T4, Mu-type opioid receptor (Mus musculus, UniProt P42866). Nature of the series: Antagonist activity at mouse vas deferns MOP. It is filed as functional.
Series [22] in a line: Toxicity in rat assessed as antinociceptive activity tolerance at 3 to10 nmol/kg measured after 5 days with 62 pmol/h icv infusion relative to control. Particulars: in vivo, icv_or_intrathecal, 120 h, at 10 nmol/kg, time 5 day.
The species entered for series [23] is Mus musculus. The series is described as follows: Antinociceptive activity in mouse by tail pressure test. It is filed as functional. To be noted: Mus musculus; read-out: ED50.
The test system of series [24] is Rattus norvegicus. The series is described as follows: Antinociceptive activity in rat administered icv. The format is functional.
Series [25] deals with T4, Mu-type opioid receptor. The series is described as follows: Antagonist activity at mouse brain homogenate MOP. It is filed as functional, tissue-based.
In series [26] the test system is Mus musculus. The series is described as follows: Antinociceptive activity in ddY mouse assessed as tail-flick latency administered icv by tail flick test. It is filed as functional.
The test system of series [27] is Mus musculus. The series is described as follows: Antinociceptive activity in ddY mouse assessed as tail-flick latency administered it by tail flick test. It is filed as functional.
Series [28] deals with Mus musculus. Nature of the series: Antinociceptive activity in Std-ddY mouse at 100 mmHg pressure administered sc by tail pressure test. It is filed as functional.
Series [29] relates to Mus musculus. Nature of the series: Antinociceptive activity in Std-ddY mouse at 100 mmHg pressure administered po by tail pressure test. The format is functional.
The test system of series [30] is Mus musculus. The series is described as follows: Antinociceptive activity in Std-ddY mouse at 100 mmHg pressure administered IT by tail pressure test. The format is functional.
Series [31] concerns Mus musculus. Nature of the series: Antinociceptive activity in Std-ddY mouse at 100 mmHg pressure administered icv by tail pressure test. The format is functional.
Series [32] concerns Rattus norvegicus. Nature of the series: Antinociceptive activity in Sprague-Dawley rat assessed as tail flick response in warm water administered iv. The format is functional.
Series [33] is described as follows: Stability in human plasma assessed as half life. The format is ADME, cell-free.
The target in series [34] is T1, Mu-type opioid receptor. The series is described as follows: Agonist activity at human MOP expressed in CHO-K1 cell membrane assessed as [35S]GTPgammaS binding relative to control. The format is functional, cell membranes. Particulars: filed as agonist.
The target in series [35] is Kappa-type opioid receptor (Homo sapiens, UniProt P41145). The series is described as follows: Displacement of [3H]U69593 from human KOP expressed in CHO-K1 cell membrane incubated for 60 mins by Microscint-counting analysis. It is filed as cell membranes.
Series [36] concerns Rattus norvegicus. The series is described as follows: Antinociceptive activity in Sprague-Dawley rat assessed as tail flick response in warm water administered icv. It is filed as functional.
Series [37] can be described thus: Stability in rat plasma assessed as half life. The format is ADME, cell-free.
In series [38] the target is T1, Mu-type opioid receptor. The series is described as follows: Binding affinity to MOP (unknown origin).
The test system of series [39] is Mus musculus. The series is described as follows: Antinociceptive activity in mechanical allodynia mouse model administered sc. It is filed as functional.
The target in series [40] is T2, Delta-type opioid receptor. Nature of the series: Binding affinity to DOP (unknown origin).
Series [41] concerns Mus musculus. Nature of the series: Antinociceptive activity in thermal hyperalgesia mouse model administered sc. It is filed as functional.
Series [42] concerns the target T3, Kappa-type opioid receptor. Nature of the series: Displacement of [3H]U69593 from guinea pig brain KOP incubated for 90 mins by scintillation counter. It is filed as tissue-based.
The target in series [43] is Mu-type opioid receptor (Rattus norvegicus, UniProt P33535). Nature of the series: Displacement of [3H]DAGO from rat brain MOP incubated for 90 mins by scintillation counter. The format is tissue-based.
For series [44], the system named is Rattus norvegicus. The series is described as follows: Antinociceptive activity in rat at 9 to 120 nmol icv or sc. To be noted: dose 9-120 nmol. It is filed as functional.
The species named for series [45] is Mus musculus. The series is described as follows: Antinociceptive activity in mouse. The format is functional.
Series [46] is described as follows: Toxicity in rat assessed as inhibition of hypercapnic respiratory response at 9 to 120 nmol icv or sc. To be noted: in vivo, icv_or_intrathecal, dose 9-120 nmol.
Series [47] has as its target Delta-type opioid receptor (Rattus norvegicus, UniProt P33533). Nature of the series: Displacement of [3H][DAla2]deltorphin-I from rat brain DOP incubated for 90 mins by scintillation counter. The format is tissue-based.

Each structure is given as a SMILES string. Square brackets hold non-standard residues; d marks the D form. Peptide text beside a SMILES is read from it. βAla = NCCC(=O)O; Sar = CNCC(=O)O

As to `O=C1NCCC(=O)N2CCC[C@@H]2C(=O)N[C@@H](Cc2ccccc2)C(=O)N[C@H]1Cc1c[nH]c2ccccc12` (cyclo(FW[βAla][dP])), the ED50 in the series with Mus musculus [1] was 0.64 mg/kg.

Turning to `NC(=O)[C@@H]1CCCCNC(=O)CC[C@@H](NC(=O)[C@@H](N)Cc2ccc(O)cc2)C(=O)N[C@@H](Cc2ccccc2)C(=O)N[C@@H](Cc2ccccc2)C(=O)N1`, on Mu-type opioid receptor [2], the EC50 – broadly, the midpoint of the concentration-response curve – came to 1.5 nM. For the same compound, the ED50 in the series on Rattus norvegicus [3] came to 3.5 µmol. For the same compound, the Ki (in general, a dissociation constant, usually derived from enzyme kinetics or from competition with a known ligand) was determined as 82 nM in series [4] and 0.96 nM at Mu-type opioid receptor [5].

Take `CN(CC(=O)O)C(=O)[C@H](Cc1ccccc1)NC(=O)[C@@H](CCCN=C(N)N)NC(=O)[C@@H](N)Cc1ccc(O)cc1` (H-Y[dR]F[Sar]-OH): the ED50 was determined as 0.8 µmol/kg with Rattus norvegicus [6]; 26 µmol/kg with Mus musculus [7]; 4.1 pmol in the series filed under Rattus norvegicus [9]; 0.61 mg/kg with Rattus norvegicus [12]; 18 pmol with Rattus norvegicus [15]; 0.053 mg/kg in series [16]. In the series with Mus musculus [17], this compound had an ED50 of 4.5 pmol. In addition, the values for the Ki (at Mu-type opioid receptor [8]; in [10]; in series [11]) were 0.5 nM, 562 nM and above 10000 nM, respectively. Moreover, the midpoint of inhibition against Mu-type opioid receptor [13], the IC50, lay at 6.9 nM. Further, the IC20 – broadly, the concentration at which the effect reaches the 20% level – in series [14] worked out at 21 nM.

`C[C@@H](NC(=O)[C@@H](N)Cc1ccc(O)cc1)C(=O)N[C@@H](Cc1ccccc1)C(=O)NCC(=O)N[C@@H](Cc1ccc(O)cc1)C(=O)N1CCC[C@H]1C(=O)N[C@@H](CO)C(N)=O` [DERMORPHIN]: the ED50 in the series filed under Rattus norvegicus [9] (Rattus norvegicus, read-out: ED50) stood at 1.5 µmol/kg; with Mus musculus [18], 6.7 pmol; in the series on Mus musculus [19], 0.46 µmol/kg; in the series on Mus musculus [20], 1 µmol/kg; in the series filed under Mus musculus [23] it was 4.6 µmol/kg; with Rattus norvegicus [24] it was 23 pmol. Besides, the IC50 – broadly, the point on the concentration scale where inhibition reaches its midpoint – on Mu-type opioid receptor [13] came to 1.1 nM; against Mu-type opioid receptor [21], 16.5 nM; on Mu-type opioid receptor [25] it was 0.76 nM. Moreover, in series [22], the Activity was found to be 63%.

For `N=C(N)NCCC[C@@H](NC(=O)[C@@H](N)Cc1ccc(O)cc1)C(=O)N[C@@H](Cc1ccccc1)C(=O)NCCC(=O)O`, the ED50 in the series on Mus musculus [26] is 1.3 pmol; in the series on Mus musculus [27], 0.3 pmol; in the series on Mus musculus [28], 0.8 µmol/kg; with Mus musculus [29], 70.1 µmol/kg; with Mus musculus [30], 0.5 pmol; in the series with Mus musculus [31], 3.1 pmol.

In the case of `NC(=O)CNC(=O)[C@@H]1CCC(=O)NCCCC[C@@H](NC(=O)[C@@H](N)Cc2ccc(O)cc2)C(=O)N[C@@H](Cc2c[nH]c3ccccc23)C(=O)N[C@@H](Cc2ccccc2)C(=O)N1`, the figures for the ED50 in the series on Rattus norvegicus [32] and in the series with Rattus norvegicus [36] were 1.5 mg/kg and 0.019 nmol, respectively. In addition, the EC50 at Mu-type opioid receptor [2] was 1.01 nM. For the same compound, the values for the half-life in series [33] and in series [37] were 150 h and 81 h, respectively. Moreover, at Mu-type opioid receptor [34], the maximal effect (Emax) (commonly the maximal effect, on the per cent scale that the assay sets) is 100%. Also, the Ki in series [4] is 127 nM; in [35], 5120 nM; at Mu-type opioid receptor [5] it was 0.68 nM.

For `NCCCC[C@H](NC(=O)[C@H](Cc1ccccc1)NC(=O)[C@@H](CCCN=C(N)N)NC(=O)[C@@H](N)Cc1ccc(O)cc1)C(N)=O`, the Ki at Mu-type opioid receptor [38] turned out to be 0.14 nM; in series [40], 19200 nM. Besides, the ED50 is 4.2 pmol in the series on Mus musculus [39], 2.37 pmol in the series on Rattus norvegicus [15] and 0.06 pmol in the series on Mus musculus [41]. This compound registered an IC50 at Mu-type opioid receptor [21] of 781 nM.

Take `C[C@@H](NC(=O)[C@@H](N)Cc1ccc(O)cc1)C(=O)N[C@@H](Cc1ccccc1)C(=O)NCC(=O)N[C@@H](Cc1ccc(O)cc1)C(=O)N1CCC[C@H]1C(=O)N[C@@H](CCCCN)C(N)=O`: the Ki in [42] was 617 nM; on Mu-type opioid receptor [43], 0.09 nM; in series [47], 1100 nM. Also, the ED50 in the series with Rattus norvegicus [6] was 0.06 µmol/kg; with Rattus norvegicus [44], 21.5 µmol/kg; in the series filed under Mus musculus [45], 0.22 µmol/kg; in the series with Rattus norvegicus [24], 0.03 pmol. Further, the IC50 is 1.7 nM against Mu-type opioid receptor [13] and 52 nM on Mu-type opioid receptor [21]. Also, the Activity in series [46] is 45.9 µmol/kg.

The values are drawn from ChEMBL document CHEMBL5126521, “Analgesic Opioid Ligand Discovery Based on Nonmorphinan Scaffolds Derived from Natural Sources” (J Med Chem, 2022).
